The values below come from patent US20240165085A1, “ORAL FELINE FEED AND METHODS FOR CONTROLLING TICK INFESTATIONS IN A FELINE” (priority 2021, published 2024).

The subject of data set [1] is Dermacentor variabilis. The experiment in a line: Example 3: efficacy of afoxolaner and fluralaner liquid formulations per os in cats against Dermacentor variabilis. It counts as in vivo. Conditions: treatment group 2, 0.075 mg/kg daily (Days 0-29), liquid formulation. From the text: Efficacy of Various Formulations of Isoxazoline Administered per os, i.e. by mouth, to Cats for the Treatment and Control of Dermacentor variabilis.
Methods: A pool of 36 cats are to be preliminarily infested with ˜50 unfed adult D. variabilis ticks in order to produce cats that can suitably sustain a reliable infestation rate, defined as approximately 25% of attached ticks being live at the end of a 48-hour period. The 30 cats with the highest live attached tick counts are to be selected for inclusion in the study. The cats are to be randomly assigned to a single control group and 4 treatment groups with 6 cats per treatment group.
(§1) The cats are to be housed individually during the study period and are to be fed a commercial dry cat food ration with ad libitum access to water.
Each cat in a treatment group (test groups 2-5) is to receive by mouth, preferably in combination with feed, a liquid formulation of isoxazoline. The dosage is to be administered to the cats on each of days 0-29 according to TABLE 2.
Cats in the control group are not to receive isoxazoline or any other tick control treatment. Each cat in the treatment group is to be offered its daily ration (dry food) and the individual doses of liquid formulation are to be administered after the individual cat has eaten at least 25% of its total daily ration. […]

The nature of data set [2]: Example 4: plasma concentration of isoxazoline in cats given medicated feed. It counts as in vivo, cat. Particulars: medicated feed dosed at 1.5 mg/kg, five different feed formulations, Day 0 to Day 30. On the procedure: Plasma Concentration of Isoxazoline in Cats when Isoxazoline is Administered in a Medicated Feed Dosed at 1.5 mg/kg of the Cat's Weight.
Methods: A pool of 30 cats are to be assigned to 5 groups of 6 cats per group by weight to minimize variation between and within the groups. Each group will be given a different feed formulation containing isoxazoline and the blood level of isoxazoline over the one month period following the single daily dose will be determined.
(§2) The cats are to be housed individually during the study period and are to have ad libitum access to water.
There is to be an initial acclimation period of at least 4 days during which cats are to be transitioned from a standard certified commercial cat feed to an unmedicated version of the daily cat feed. During the acclimation period, the cats are to be allowed 15 minutes/day to consume the feed.
Each medicated feed formulation should be able to deliver approximately 14.1 g/kg of daily feed containing isoxazoline. The amount of medicated feed for each cat is to be determined according to the most recent body weight of the cat prior to the first day (Day 0) of the study. Each medicated feed is to be provided for 15 minutes daily from Day 0 up to and including Day 30. Any uneaten medicated feed remaining after each daily 15 minute timed offering period is to be removed, weighed and the amount recorded. […]

Data set [3] has as its system Dermacentor variabilis. The experiment in a line: Example 1: efficacy of isoxazoline per os in cats against Dermacentor variabilis (attached tick comb counts). The format is in vivo.
Source text: Efficacy of Isoxazoline Administered per os, i.e. by mouth, to Cats for the Treatment and Control of Dermacentor variabilis.
Methods: A pool of 14 cats are to be preliminarily infested with ˜50 unfed adult D. variabilis ticks in order to produce cats that can suitably sustain a reliable infestation rate, defined as approximately 25% attached ticks being live at the end of a 48-hour period. The 12 cats with the highest live attached tick counts are to be selected for inclusion in the study. The cats are to be divided into a control group and a treatment group with 6 cats in each group.
as §1
(§3) Each cat in the treatment group is to receive by mouth, preferably in combination with feed, a liquid formulation of isoxazoline. The dosage of 1.125 mg/kg is to be administered to the cats on each of days 0-29.
Cats in the control group are not to receive isoxazoline or any other tick control treatment. Each cat in the treatment group is to be offered its daily ration (dry food) and the individual doses of liquid formulation are to be administered after the individual cat has eaten at least 25% of its total daily ration. After receiving the dose of isoxazoline, the cats are to be allowed to continue eating. This mimics incorporating the isoxazoline in feed. […]

Data set [4] is described as follows: Example 1: average plasma concentration of isoxazoline in cats, daily oral dosing. The format is in vivo, cat. Particulars: 1.125 mg/kg daily. Here is the method: as §3
Using the same study method as described above, blood is to be drawn at 72, 168, 336, 504, 720 and 888 hours after the initial dose of isoxazoline is administered. The average concentration of isoxazoline in the blood can then be determined.

Data set [5] relates to Dermacentor variabilis. The experiment in a line: Example 6: efficacy of Mivorilaner in medicated feed in cats against Dermacentor variabilis (FIG. 1). It counts as in vivo. Conditions: days 0-29, within 16 days. Here is the method: FIG. 1. A graph of the arithmetic mean efficacy for treatment Group 2 (stars) and Group 3 (horizontal hash). Percent efficacy=[AM fleas CONTROL−AM fleas TREATED]/AM fleas CONTROL. Efficacy measured at 2, 16, 27, 30, and 37 days after Initial Treatment, with either 0.75 mg of Mivorilaner/kg (Group 2) or 1.5 mg of Mivorilaner/kg (Group 3).
(§4) Efficacy of Isoxazoline when Isoxazoline is Administered in a Medicated Feed for the Treatment and Control of Dermacentor variabilis.
Methods: A pool of cats are to be preliminarily infested with ˜100 unfed adult C. felis fleas in order to produce cats that can suitably sustain a reliable infestation rate, defined as approximately 50% retention of live fleas at the end of a 48-hour period. The cats with the highest live flea counts are to be randomly assigned to a single control group (Group 1) and 2 medicated feed treatment groups with 4 cats per group. The cats in groups 2 and 3 will receive Mivorilaner.
as §2
Each cat in a treatment group (Groups 2 and 3) is to receive a medicated daily feed from study days 0-29 according to TABLE 4.
The cats are to be fasted overnight prior to each daily treatment. […]

Data set [6] is described as follows: Example 5: plasma concentration of isoxazoline in cats given medicated daily feed. It counts as in vivo, cat. On the procedure:
(§5) Each cat in a treatment group (Groups 2-4) is to receive a medicated daily feed from study days 0-29. Each medicated daily feed (Groups 2-4) is to be offered to the cats for 1 hour on each of days 0-29 according to test groups in TABLE 3.
Using the same study method as described above, blood is to be drawn at day 0 (day of the first administration of medicated feed) and days 2, 4, 7, 10, 14, 21 and 30 after the initial dose of isoxazoline is administered on day 0. The average concentration of isoxazoline in the blood for different dosage levels can then be determined.

Data set [7] relates to Dermacentor variabilis. Nature of the data set: Example 5: efficacy of isoxazoline in medicated feed in cats against Dermacentor variabilis. The format is in vivo. Particulars: 1 mg/kg, days 0-29, by day 14. On the procedure:
as §4
Methods: A pool of 24 cats are to be preliminarily infested with ˜50 unfed adult D. variabilis ticks in order to produce cats that can suitably sustain a reliable infestation rate, defined as approximately 25% of attached ticks being live at the end of a 48-hour period. The 18 cats with the highest live attached tick counts are to be randomly assigned to a single control group (Group 1) and 2 different medicated feed treatment groups (Groups 2 and 3) with 6 cats per group. The remaining 6 cats are to be assigned to a final medicated feed treatment group (Group 4).
as §2, §5
Cats in the control group are not to receive isoxazoline or any other tick control treatment. […]

As to `O=C(CNC(=O)c1ccc(C2=NOC(c3cc(Cl)cc(C(F)(F)F)c3)(C(F)(F)F)C2)c2ccccc12)NCC(F)(F)F` (centres unmarked) [Afoxolaner, 4-{5-[3-chloro-5-(trifluoromethyl)phenyl]-5-(trifluoromethyl)-4,5-dihydroisoxazol-3-yl}-N-{2-oxo-2-[(2,2,2-trifluoroethyl)amino]ethyl}naphthalene-1-carboxamide], the figures for the efficacy entry in data set [1] (by day 14) and in data set [1] (by day 21) were “greater than 80%” and “greater than 90%”, respectively.
Turning to `O=C(CNC(=O)c1sc(C2=NO[C@@](c3cc(Cl)c(F)c(Cl)c3)(C(F)(F)F)C2)c2c1CCC2)NCC(F)F` [mivorilaner, 3-[(5S)-5-(3,5-dichloro-4-fluorophenyl)-5-(trifluoromethyl)-4,5-dihydroisoxazol-3-yl]-N-[2-[(2,2-difluoroethyl)amino]-2-oxoethyl]-5,6-dihydro-4H-cyclopenta[c]thiophene-1-carboxamide], the mean plasma concentrations result in data set [2] is “consistent with those achieved in Examples 1 and 2”. In addition, the “reduction in attached tick counts over the control group” value in data set [3] (1.125 mg/kg by mouth daily days 0-29, within 7 days) is recorded as “at least 60%”; in data set [3] (1.125 mg/kg by mouth daily days 0-29, within 14 days), 90%. Moreover, the average plasma concentration result in data set [4] (day 3) was “about 1011 ng/mL”; in data set [4] (day 21) it was “about 4088”; in data set [4] (day 37, approximately 8 days after the final dose), “about 3025 ng/mL”. Moreover, the “efficacy (percent reduction in attached live and moribund tick counts)” value in data set [5] (treatment group 2, 0.75 mg/kg daily in wet cat food) is 100%; in data set [5] (treatment group 3, 1.5 mg/kg daily in wet cat food) it was 100%. Besides, the “plasma concentrations relative to treatment groups 2 and 3” value in data set [6] (treatment group 4, 3 mg/kg daily, versus groups 2 and 3, 1 mg/kg daily) is 2.5-4 times higher. Also, the “plasma concentrations, comparison of feed formulations” value in data set [6] (treatment groups 2 and 3, 1 mg/kg daily, different feed formulations) is “consistent between treatment groups 2 and 3”. The efficacy result in data set [7] (treatment group 2, medicated daily feed) is recorded as “greater than 95%”; in data set [7] (treatment group 3, medicated daily feed), “greater than 95%”.
